Experimental data as given in article PMC12248599, “Exploring the Bioavailability of Red Grape Skin Extract Polyphenols: A Caco-2 Cell Model Study” (Foods, 2025).
Several values for one entry are separate records, joined by “and”; a condition that tells them apart may be missing. Identical values can stand only once. Marks after values point to notes of the source that are not given here.

Tested on: Caco-2 cell monolayer
Assay: Caco-2 monolayer transport (bioavailability) study, AB and BA directions
Assay type: in vitro ADME, Homo sapiens
Settings: for detection at the acceptor side of the Caco-2 cell monolayer: AB and BA experiments; for Apical Side 0 min / Apical Side 75 min / Apical Side 90 min / Apical Side 115 min / Apical Side 180 min / reduction in concentration on the apical (donor) side: AB experiment; for Apical Side 0 min / Apical Side 75 min / Apical Side 90 min / Apical Side 115 min / Apical Side 180 min / Basolateral Side 0 min / Basolateral Side 75 min / Basolateral Side 90 min / Basolateral Side 115 min / Basolateral Side 180 min: donor side; for Basolateral Side 0 min / Basolateral Side 75 min / Basolateral Side 90 min / Basolateral Side 115 min / Basolateral Side 180 min / reduction in concentration on the basolateral (donor) side: BA experiment; for reduction in concentration on the basolateral (donor) side / reduction in concentration on the apical (donor) side: 0 to 180 min
Protocol: A reversed phase C18 column (Luna 5 μm C18(2) 100 Å, LC Column 250 × 4.6 mm, Phenomenex) was used to separate the polyphenols at a flow rate of 0.7 mL/min with an injection volume of 60 µL. The detection was carried out at 520 nm for anthocyanins (M3G, D3G and Pet3G), at 328 nm for CA, at 356 nm for flavonols (Q3G, K3Gal and K3G) and at 280 nm for GA and SA. The mobile phases were (A) acetonitrile 100% and (B) water 0.1% trifluoroacetic acid (v/v). The gradient was programmed as follows: 10% A 0 min, 10–80% A (0–20 min), 80–100% A (20–25 min), 100% A (25–30 min); 10% A (30–35 min) and 10% A (35–40 min). Every polyphenol was quantified using the corresponding reference standard calibration curve. Each of the quantified phenolic compound concentration was expressed as mg/mL
For the transport experiment Caco-2 cells were cultured at a density of 4 × 10^4 cells/cm^2 in Transwell inserts (12 mm i.d., 1.12 cm^2 growth area, 0.4 µm mean pore size polycarbonate membranes, Corning Inc., Milwaukee, WI, USA) placed in 12-well plates. Caco-2 cells were grown in DMEM in an incubator at 37 °C in a humidified atmosphere containing 5% CO2.
Bioavailability studies were performed in triplicate after 21 days of cell growth. Only inserts with stable TEER values higher than ≥300 Ω cm^2 were considered acceptable to perform the bioavailability study. For that purpose, DMEM media was removed, the monolayer was washed with PBS and HBSS was supplied to the cells.
Likewise, the GSE stock solution was diluted in HBSS medium to prepare GSE solutions S1 and S2. GSE solutions S1 and S2 had concentrations of 15 mg/mL and 22 mg/mL, respectively. These concentrations were established considering previous studies with grape pomace extracts that concluded that intestinal concentrations of 1–2% (w/v) show potential bioactivities and are safe to be used as a food ingredient.
The apical side represents the intestinal lumen and the basolateral side represents the bloodstream. Each sample (100 µL) was immediately acidified with 1M HCl to a final concentration of 0.007 M and subsequently frozen at −20 °C until analysis by HPLC (according to the method described in Section 2.5). Each experiment was carried out on 3 individual wells. The transport efficiency (TE) percentage was calculated according to Equation (2):Transport efficiency (%) = (C/C0) × 100(2) where, C is the polyphenol concentration at the acceptor side over time and C0 is the initial concentration at the donor side. TE values were calculated for the nine polyphenols identified in the grape skin extract.
The apparent permeability coefficient (Papp) of the polyphenols in GSE was calculated for apical to basolateral side (AB) and basolateral to apical side (BA) flux studies according to Equation (3):Papp (cm/s) = (dQ/dt) × (VR/AC0)(3) where, dQ/dt is the permeability rate which means the steady-state linear rate of change of concentration (mg/L) per second (s) at the acceptor side; A is the surface area of the cell monolayer (1.12 cm^2). C0 is the initial concentration at the donor side (mg/L) at t = 0 s and VR is the volume of the solution of the acceptor side (mL).
The efflux ratio (ER) of the polyphenol was assessed by calculating the Equation (4):ER = Papp (BA)/Papp (AB)(4) where, Papp (BA) is the apparent permeability coefficient of the polyphenol from basolateral to apical side and Papp (AB) is the apparent permeability coefficient from apical to basolateral side. ER is a measure of the relative contributions of active and passive transport to bi-direction flux across the cell monolayer.

## OC[C@H]1O[C@@H](Oc2cc3c(O)cc(O)cc3[o+]c2-c2cc(O)c(O)c(O)c2)[C@H](O)[C@@H](O)[C@@H]1O [D3G, delphinidin-3-O-glucoside]
  detection at the acceptor side of the Caco-2 cell monolayer: not detected
S1 (15 mg/mL GSE)
  Apical Side 0 min: 2.1 ± 0.2 ^a mg/L
  Apical Side 75 min: 1.9 ± 0.2 ^a,b mg/L
  Apical Side 90 min: 1.8 ± 0.1 ^b,c mg/L
  Apical Side 115 min: 1.6 ± 0.1 ^c mg/L
  Apical Side 180 min: 1.5 ± 0.1 ^c mg/L
  Basolateral Side 0 min: 2.7 ± 0.2 ^a mg/L
  Basolateral Side 75 min: 2.6 ± 0.2 ^a,b mg/L
  Basolateral Side 90 min: 2.5 ± 0.2 ^b,c mg/L
  Basolateral Side 115 min: 2.4 ± 0.2 ^b,c mg/L
  Basolateral Side 180 min: 2.3 ± 0.2 ^c mg/L
S2 (22 mg/mL GSE)
  Apical Side 0 min: 4.7 ± 0.1 ^a mg/L
  Apical Side 75 min: 4.4 ± 0.1 ^b mg/L
  Apical Side 90 min: 4.3 ± 0.1 ^c mg/L
  Apical Side 115 min: 4.05 ± 0.09 ^c mg/L
  Apical Side 180 min: 3.94 ± 0.08 ^c mg/L
  Basolateral Side 0 min: 3.6 ± 0.2 ^a mg/L
  Basolateral Side 75 min: 3.5 ± 0.2 ^a mg/L
  Basolateral Side 90 min: 3.4 ± 0.2 ^a mg/L
  Basolateral Side 115 min: 3.4 ± 0.2 ^d mg/L
  Basolateral Side 180 min: 3.4 ± 0.2 ^a mg/L

## COc1cc(-c2[o+]c3cc(O)cc(O)c3cc2O[C@@H]2O[C@H](CO)[C@@H](O)[C@H](O)[C@H]2O)cc(O)c1O [Pet3G, petunidin-3-O-glucoside]
  detection at the acceptor side of the Caco-2 cell monolayer: not detected
S1 (15 mg/mL GSE)
  Apical Side 0 min: 1.8 ± 0.1 ^a mg/L
  Apical Side 75 min: 1.4 ± 0.1 ^b mg/L
  Apical Side 90 min: 1.2 ± 0.1 ^c mg/L
  Apical Side 115 min: 1.02 ± 0.10 ^c,d mg/L
  Apical Side 180 min: 0.9 ± 0.1 ^d mg/L
  Basolateral Side 0 min: 4.3 ± 0.1 ^a mg/L
  Basolateral Side 75 min: 4.0 ± 0.1 ^b mg/L
  Basolateral Side 90 min: 3.8 ± 0.1 ^b,c mg/L
  Basolateral Side 115 min: 3.65 ± 0.09 ^c,d mg/L
  Basolateral Side 180 min: 3.49 ± 0.08 ^d mg/L
S2 (22 mg/mL GSE)
  Apical Side 0 min: 4.4 ± 0.2 ^a mg/L
  Apical Side 75 min: 4.0 ± 0.1 ^b mg/L
  Apical Side 90 min: 3.7 ± 0.1 ^c mg/L
  Apical Side 115 min: 3.33 ± 0.09 ^c mg/L
  Apical Side 180 min: 3.16 ± 0.08 ^c mg/L
  Basolateral Side 0 min: 3.1 ± 0.2 ^a mg/L
  Basolateral Side 75 min: 3.0 ± 0.2 ^a mg/L
  Basolateral Side 90 min: 2.9 ± 0.2 ^a mg/L
  Basolateral Side 115 min: 2.7 ± 0.2 ^a mg/L
  Basolateral Side 180 min: 2.7 ± 0.2 ^a mg/L

## O=c1c(OC2O[C@H](CO)[C@H](O)[C@H](O)[C@H]2O)c(-c2ccc(O)cc2)oc2cc(O)cc(O)c12 (some centres unmarked) [K3Gal, kaempferol-3-galactoside]
  detection at the acceptor side of the Caco-2 cell monolayer: not detected
S1 (15 mg/mL GSE)
  Apical Side 0 min: 0.63 ± 0.02 ^a mg/L
  Apical Side 75 min: 0.52 ± 0.02 ^b mg/L
  Apical Side 90 min: 0.45 ± 0.02 ^c mg/L
  Apical Side 115 min: 0.39 ± 0.01 ^d mg/L
  Apical Side 180 min: 0.35 ± 0.01 ^c mg/L
  reduction in concentration on the basolateral (donor) side: 81 ± 2%
  Basolateral Side 0 min: 0.26 ± 0.01 mg/L and 0.26 ± 0.01 ^a mg/L
  Basolateral Side 75 min: 0.19 ± 0.01 ^b mg/L
  Basolateral Side 90 min: 0.13 ± 0.01 ^c mg/L
  Basolateral Side 115 min: 0.08 ± 0.01 ^d mg/L
  Basolateral Side 180 min: 0.05 ± 0.01 mg/L and 0.05 ± 0.01 ^c mg/L
S2 (22 mg/mL GSE)
  Apical Side 0 min: 1.23 ± 0.02 ^a mg/L
  Apical Side 75 min: 1.09 ± 0.02 ^b mg/L
  Apical Side 90 min: 1.01 ± 0.02 ^c mg/L
  Apical Side 115 min: 0.88 ± 0.02 ^d mg/L
  Apical Side 180 min: 0.79 ± 0.02 ^c mg/L
  Basolateral Side 0 min: 0.79 ± 0.02 ^a mg/L
  Basolateral Side 75 min: 0.75 ± 0.02 ^b mg/L
  Basolateral Side 90 min: 0.71 ± 0.02 ^c mg/L
  Basolateral Side 115 min: 0.67 ± 0.02 ^d mg/L
  Basolateral Side 180 min: 0.64 ± 0.01 ^c mg/L

## COc1cc(C(=O)O)cc(OC)c1O [SA, syringic acid]
  detection at the acceptor side of the Caco-2 cell monolayer: not detected
S1 (15 mg/mL GSE)
  reduction in concentration on the apical (donor) side: 67 ± 4%
  Apical Side 0 min: 0.70 ± 0.03 mg/L and 0.70 ± 0.03 ^a mg/L
  Apical Side 75 min: 0.54 ± 0.03 ^b mg/L
  Apical Side 90 min: 0.42 ± 0.03 ^c mg/L
  Apical Side 115 min: 0.32 ± 0.03 ^d mg/L
  Apical Side 180 min: 0.23 ± 0.03 mg/L and 0.23 ± 0.03 ^c mg/L
  Basolateral Side 0 min: 0.84 ± 0.08 ^a mg/L
  Basolateral Side 75 min: 0.72 ± 0.07 ^a,b mg/L
  Basolateral Side 90 min: 0.63 ± 0.07 ^b,c mg/L
  Basolateral Side 115 min: 0.53 ± 0.06 ^c,d mg/L
  Basolateral Side 180 min: 0.44 ± 0.06 ^d mg/L
S2 (22 mg/mL GSE)
  reduction in concentration on the apical (donor) side: 55 ± 2%
  Apical Side 0 min: 1.48 ± 0.06 mg/L and 1.48 ± 0.06 ^a mg/L
  Apical Side 75 min: 1.21 ± 0.04 ^b mg/L
  Apical Side 90 min: 1.03 ± 0.03 ^c mg/L
  Apical Side 115 min: 0.82 ± 0.02 ^d mg/L
  Apical Side 180 min: 0.67 ± 0.03 mg/L and 0.67 ± 0.03 ^c mg/L
  reduction in concentration on the basolateral (donor) side: 23 ± 1%
  Basolateral Side 0 min: 1.1 ± 0.1 ^a mg/L
  Basolateral Side 75 min: 1.10 ± 0.09 ^a,b mg/L
  Basolateral Side 90 min: 1.03 ± 0.09 ^a,b,c mg/L
  Basolateral Side 115 min: 0.96 ± 0.08 ^b,c mg/L
  Basolateral Side 180 min: 0.90 ± 0.08 mg/L and 0.901 ± 0.08 ^c mg/L
BA experiments, apical side
  detection at the acceptor side: detected
